Test system: SK-BR-3
Test: Inhibition of oncogene product p185 erbB-2 from human breast cancer cells(SK-BR-3 cells).

| IC50 | Structure (SMILES) |
| --- | --- |
| 0.22 µM | CO[C@H]1/C=C\C=C(/C)C(=O)NC2=CC(=O)C(Nc3nccs3)=C(C[C@@H](C)C[C@H](OC)[C@H](O)[C@@H](C)/C=C(\C)[C@@H]1OC(N)=O)C2=O |
| 0.089 µM | CNC1=C2C[C@@H](C)C[C@H](OC)[C@H](O)[C@@H](C)/C=C(\C)[C@H](OC(N)=O)[C@@H](OC)/C=C\C=C(/C)C(=O)NC(=CC1=O)C2=O |
| 1.5 µM | COC1=C2C[C@@H](C)C[C@H](OC)[C@H](O)[C@@H](C)/C=C(\C)[C@H](OC(N)=O)[C@@H](OC)/C=C\C=C(/C)C(=O)NC(=C(N3C=CC=CC=C3)C1=O)C2=O |
| 0.14 µM | CO[C@H]1/C=C\C=C(/C)C(=O)NC2=CC(=O)C(NCCCN(C)C)=C(C[C@@H](C)C[C@H](OC)[C@H](O)[C@@H](C)/C=C(\C)[C@@H]1OC(N)=O)C2=O |
| 0.1 µM | CO[C@H]1/C=C\C=C(/C)C(=O)NC2=CC(=O)C(NCCO)=C(C[C@@H](C)C[C@H](OC)[C@H](O)[C@@H](C)/C=C(\C)[C@@H]1OC(N)=O)C2=O |
| 0.42 µM | CO[C@H]1/C=C\C=C(/C)C(=O)Nc2cc3nc4ccccc4oc-3c(c2=O)C[C@@H](C)C[C@H](OC)[C@H](O)[C@@H](C)/C=C(\C)[C@@H]1OC(N)=O |
| 0.47 µM | CO[C@H]1C[C@H](C)CC2=C(NC(C)C)C(=O)C=C(NC(=O)/C(C)=C/CC[C@H](OC)[C@@H](OC(N)=O)/C(C)=C/[C@H](C)[C@H]1O)C2=O |
| 0.79 µM | CO[C@H]1/C=C\C=C(/C)C(=O)NC2=CC(=O)C(N3CCCC3C(=O)O)=C(C[C@@H](C)C[C@H](OC)[C@H](O)[C@@H](C)/C=C(\C)[C@@H]1OC(N)=O)C2=O (some centres not stated) |
| > 3.25 µM | COC1=C2C[C@@H](C)C[C@H](OC)[C@H](O)[C@@H](C)/C=C(\C)[C@H](OC(N)=O)[C@@H](OC)/C=C\C=C(/C)C(=O)NC(=C(NC3CC3)C1=O)C2=O |
| 1.1 µM | COC1c2cc(O)cc(c2O)NC(=O)/C(C)=C/C=C\[C@H](OC)[C@@H](OC(N)=O)/C(C)=C/[C@H](C)[C@@H](O)[C@@H](OC)C[C@@H]1C (some centres not stated) |
| 0.11 µM | CO[C@H]1/C=C\C=C(/C)C(=O)NC2=CC(=O)C(NCCCI)=C(C[C@@H](C)C[C@H](OC)[C@H](O)[C@@H](C)/C=C(\C)[C@@H]1OC(N)=O)C2=O |
| 0.13 µM | CO[C@H]1/C=C\C=C(/C)C(=O)NC2=CC(=O)C(NCCCO)=C(C[C@@H](C)C[C@H](OC)[C@H](O)[C@@H](C)/C=C(\C)[C@@H]1OC(N)=O)C2=O |
| > 3.1 µM | CO[C@H]1/C=C\C=C(/C)C(=O)NC2=CC(=O)C(NCC3CCNCC3)=C(C[C@@H](C)C[C@H](OC)[C@H](O)[C@@H](C)/C=C(\C)[C@@H]1OC(N)=O)C2=O |
| 0.098 µM | CO[C@H]1/C=C\C=C(/C)C(=O)NC2=CC(=O)C(NCCSC)=C(C[C@@H](C)C[C@H](OC)[C@H](O)[C@@H](C)/C=C(\C)[C@@H]1OC(N)=O)C2=O |
| > 4.1 µM | CO[C@H]1/C=C\C=C(/C)C(=O)NC2=C(NCCCN(C)C)C(=O)C(NCCCN(C)C)=C(C[C@@H](C)C[C@H](OC)[C@H](O)[C@@H](C)/C=C(\C)[C@@H]1OC(N)=O)C2=O |
| 0.26 µM | CO[C@H]1/C=C\C=C(/C)C(=O)NC2=CC3=NCCCNC3=C(C[C@@H](C)C[C@H](OC)[C@H](O)[C@@H](C)/C=C(\C)[C@@H]1OC(N)=O)C2=O |
| > 3.2 µM | CO[C@H]1/C=C\C=C(/C)C(=O)Nc2cc3nc4ccccc4nc3c(c2O)C[C@@H](C)C[C@H](OC)[C@H](O)[C@@H](C)/C=C(\C)[C@@H]1OC(N)=O |
| > 3.04 µM | COC1=C2C[C@@H](C)C[C@H](OC)[C@H](O)[C@@H](C)/C=C(\C)[C@H](OC(N)=O)[C@@H](OC)/C=C\C=C(/C)C(=O)N3CN(C(C)(C)C)CC(=C3C2=O)C1=O |
| 0.043 µM | CO[C@H]1/C=C\C=C(/C)C(=O)NC2=CC(=O)C(NC3CC3)=C(C[C@@H](C)C[C@H](OC)[C@H](O)[C@@H](C)/C=C(\C)[C@@H]1OC(N)=O)C2=O |
| 0.05 µM | CO[C@H]1/C=C\C=C(/C)C(=O)NC2=CC(=O)C(N3CC(O)C3)=C(C[C@@H](C)C[C@H](OC)[C@H](O)[C@@H](C)/C=C(\C)[C@@H]1OC(N)=O)C2=O |
| 0.1 µM | COc1c(O)cc2c(O)c1C[C@@H](C)C[C@H](OC)[C@H](O)[C@@H](C)/C=C(\C)[C@H](OC(N)=O)[C@@H](OC)/C=C\C=C(/C)C(=O)N2 |
| > 3.2 µM | CO[C@H]1C[C@H](C)CC2=C(NCCC(=O)O)C(=O)C=C(NC(=O)/C(C)=C/CC[C@H](OC)[C@@H](OC(N)=O)/C(C)=C/[C@H](C)[C@H]1O)C2=O |
| 0.26 µM | CO[C@H]1/C=C\C=C(/C)C(=O)NC2=CC(=O)C(NC[C@@H](C)O)=C(C[C@@H](C)C[C@H](OC)[C@H](O)[C@@H](C)/C=C(\C)[C@@H]1OC(N)=O)C2=O |
| 0.2 µM | CO[C@H]1/C=C\C=C(/C)C(=O)NC2=CC(=O)C(NC(C)(C)C)=C(C[C@@H](C)C[C@H](OC)[C@H](O)[C@@H](C)/C=C(\C)[C@@H]1OC(N)=O)C2=O |

| IC50 | Structure (SMILES) |
| --- | --- |
| 2.03 µM | CO[C@H]1/C=C\C=C(/C)C(=O)NC2=CC3=NC(/N=C(\N)N4CCOCC4)=NC3=C(C[C@@H](C)C[C@H](OC)[C@H](O)[C@@H](C)/C=C(\C)[C@@H]1OC(N)=O)C2=O |
| 0.71 µM | COC(CNC1=C2C[C@@H](C)C[C@H](OC)[C@H](O)[C@@H](C)/C=C(\C)[C@H](OC(N)=O)[C@@H](OC)/C=C\C=C(/C)C(=O)NC(=CC1=O)C2=O)OC |
| 0.026 µM | C#CCNC1=C2C[C@@H](C)C[C@H](OC)[C@H](O)[C@@H](C)/C=C(\C)[C@H](OC(N)=O)[C@@H](OC)/C=C\C=C(/C)C(=O)NC(=CC1=O)C2=O |
| > 2.9 µM | COC1=C2C[C@@H](C)C[C@H](OC)[C@H](O)[C@@H](C)/C=C(\C)[C@H](OC(N)=O)[C@@H](OC)/C=C\C=C(/C)C(=O)NC(=C(/C=N/N3CCN(C)CC3)C1=O)C2=O |
| 0.92 µM | CO[C@H]1/C=C\C=C(/C)C(=O)NC2=CC(=O)C(NCCCn3ccnc3)=C(C[C@@H](C)C[C@H](OC)[C@H](O)[C@@H](C)/C=C(\C)[C@@H]1OC(N)=O)C2=O |
| > 3.13 µM | COC1=C2C[C@@H](C)C[C@H](OC)[C@H](O)[C@@H](C)/C=C(\C)[C@H](OC(N)=O)[C@@H](OC)/C=C\C=C(/C)C(=O)NC(=C(Br)C1=O)C2=O |
| > 3.1 µM | COC1=C2C[C@@H](C)C[C@H](OC)[C@H](O)[C@@H](C)/C=C(\C)[C@H](OC(N)=O)[C@@H](OC)/C=C\C=C(/C)C3=NC(=C(C1=O)C(NC(C)(C)C)O3)C2=O (some centres not stated) |
| 0.08 µM | CO[C@H]1/C=C\C=C(/C)C(=O)NC2=CC(=O)C(NCCCN)=C(C[C@@H](C)C[C@H](OC)[C@H](O)[C@@H](C)/C=C(\C)[C@@H]1OC(N)=O)C2=O |
| 0.066 µM | CO[C@H]1C[C@H](C)CC2=C(N3CC(N)C3)C(=O)C=C(NC(=O)/C(C)=C/CC[C@H](OC)[C@@H](OC(N)=O)/C(C)=C/[C@H](C)[C@H]1O)C2=O |
| 0.52 µM | COC1c2cc(O)cc(c2O)NC(=O)/C(C)=C/C=C\[C@H](OC)[C@@H](OC(N)=O)/C(C)=C/[C@H](C)[C@@H](OC)[C@@H](OC)C[C@@H]1C (some centres not stated) |
| 0.97 µM | CO[C@H]1/C=C\C=C(/C)C(=O)NC2=CC(=O)C(NCC(O)CO)=C(C[C@@H](C)C[C@H](OC)[C@H](O)[C@@H](C)/C=C(\C)[C@@H]1OC(N)=O)C2=O (some centres not stated) |
| 0.17 µM | CO[C@H]1/C=C\C=C(/C)C(=O)NC2=CC(=O)C(N=C(N(C)C)N(C)C)=C(C[C@@H](C)C[C@H](OC)[C@H](O)[C@@H](C)/C=C(\C)[C@@H]1OC(N)=O)C2=O |
| 0.17 µM | CO[C@H]1/C=C\C=C(/C)C(=O)NC2=CC(=O)C(NCCS)=C(C[C@@H](C)C[C@H](OC)[C@H](O)[C@@H](C)/C=C(\C)[C@@H]1OC(N)=O)C2=O |
| 0.18 µM | CO[C@H]1/C=C\C=C(/C)C(=O)NC2=CC(=O)C(N[C@@H](C)CO)=C(C[C@@H](C)C[C@H](OC)[C@H](O)[C@@H](C)/C=C(\C)[C@@H]1OC(N)=O)C2=O |
| 0.32 µM | CO[C@H]1/C=C\C=C(/C)C(=O)NC2=CC(=O)C(NCCc3ccco3)=C(C[C@@H](C)C[C@H](OC)[C@H](O)[C@@H](C)/C=C(\C)[C@@H]1OC(N)=O)C2=O |
| 1.27 µM | CO[C@H]1/C=C\C=C(/C)C(=O)NC2=CC(=O)C(NCCNC(C)=O)=C(C[C@@H](C)C[C@H](OC)[C@H](O)[C@@H](C)/C=C(\C)[C@@H]1OC(N)=O)C2=O |
| 0.15 µM | CO[C@H]1/C=C\C=C(/C)C(=O)NC2=CC3=NC(/N=C(\N)N4CCC(C)CC4)=NC3=C(C[C@@H](C)C[C@H](OC)[C@H](O)[C@@H](C)/C=C(\C)[C@@H]1OC(N)=O)C2=O |
| > 2.7 µM | CO[C@H]1/C=C\C=C(/C)C(=O)NC2=CC(=O)C(NCCS(=O)(=O)O)=C(C[C@@H](C)C[C@H](OC)[C@H](O)[C@@H](C)/C=C(\C)[C@@H]1OC(N)=O)C2=O |
| 0.051 µM | C=CCNC1=C2C[C@@H](C)C[C@H](OC)[C@H](O)[C@@H](C)/C=C(\C)[C@H](OC(N)=O)[C@@H](OC)CC/C=C(\C)C(=O)NC(=CC1=O)C2=O |
| 0.98 µM | CO[C@H]1C[C@H](C)CC2=C3N=C(/N=C(\N)N4CCC4)N=C3C=C(NC(=O)/C(C)=C/CC[C@H](OC)[C@@H](OC(N)=O)/C(C)=C/[C@H](C)[C@H]1O)C2=O |
| 0.33 µM | CO[C@H]1/C=C\C=C(/C)C(=O)NC2=CC(=O)C(N[C@H](C)CO)=C(C[C@@H](C)C[C@H](OC)[C@H](O)[C@@H](C)/C=C(\C)[C@@H]1OC(N)=O)C2=O |
| 1.99 µM | CO[C@H]1/C=C\C=C(/C)C(=O)NC2=CC(=O)C(NCC(N)=O)=C(C[C@@H](C)C[C@H](OC)[C@H](O)[C@@H](C)/C=C(\C)[C@@H]1OC(N)=O)C2=O |
| 1.3 µM | CO[C@H]1C[C@H](C)CC2=C(N3CC(CO)C3)C(=O)C=C(NC(=O)/C(C)=C/CC[C@H](OC)[C@@H](OC(N)=O)/C(C)=C/[C@H](C)[C@H]1O)C2=O |
| 1.3 µM | CO[C@H]1/C=C\C=C(/C)C(=O)NC2=CC(=O)C(N3CC(CO)C3)=C(C[C@@H](C)C[C@H](OC)[C@H](O)[C@@H](C)/C=C(\C)[C@@H]1OC(N)=O)C2=O |

| Structure (SMILES) | IC50 |
| --- | --- |
| CO[C@H]1/C=C\C=C(/C)C(=O)NC2=CC(=O)C(NC3CN4CCC3CC4)=C(C[C@@H](C)C[C@H](OC)[C@H](O)[C@@H](C)/C=C(\C)[C@@H]1OC(N)=O)C2=O (some centres not stated) | 1.37 µM |
| CO[C@H]1/C=C\C=C(/C)C(=O)NC2=CC(=O)C(NCCC(=O)O)=C(C[C@@H](C)C[C@H](OC)[C@H](O)[C@@H](C)/C=C(\C)[C@@H]1OC(N)=O)C2=O | 0.19 µM |
| COC1=C2C[C@@H](C)C[C@H](OC)[C@H](O)[C@@H](C)/C=C(\C)[C@H](OC(N)=O)[C@@H](OC)CC/C=C(\C)C(=O)NC(=CC1=O)C2=O | 0.23 µM |
| CO[C@H]1/C=C\C=C(/C)C(=O)NC2=CC(=O)C(NCc3ccccc3)=C(C[C@@H](C)C[C@H](OC)[C@H](O)[C@@H](C)/C=C(\C)[C@@H]1OC(N)=O)C2=O | 0.79 µM |

Reference: ChEMBL document CHEMBL1128559, “Inhibition of the oncogene product p185erbB-2 in vitro and in vivo by geldanamycin and dihydrogeldanamycin derivatives” (J Med Chem, 1995)
